{"source": "paper PMC6394493", "about": "(Cancer Chemotherapy and Pharmacology, 2018)", "origin": "cited, not measured here", "tested_on": "pS6", "design": "method as in PMID 25673697", "details": "patients with advanced solid tumors; cited from earlier work", "data": [{"smiles": "CO[C@H]1C[C@@H]2CC[C@@H](C)[C@@](O)(O2)C(=O)C(=O)N2CCCC[C@H]2C(=O)O[C@H]([C@H](C)C[C@@H]2CC[C@@H](OCCO)[C@H](OC)C2)CC(=O)[C@H](C)/C=C(\\C)[C@@H](O)[C@@H](OC)C(=O)[C@H](C)C[C@H](C)/C=C/C=C/C=C/1C", "note": "[everolimus]", "values": [{"measurement": "changes in pS6 in skin biopsies", "result": "induce changes in pS6"}]}]}
